Assay results from US20210393610A1, “COMPOSITIONS AND METHODS FOR TREATING GOUT AND HYPERURICEMIA” (Jiangsu Hengrui Medicine Co., Ltd., priority 2018, published 2021).

Key:
[1] = febuxostat alone group v.s. lesinurad 400 mg plus febuxostat group; cited from earlier work
serum uric acid (sUA) = assay: PD interaction: serum uric acid (sUA) level after separate and combined administration; type: in vivo, patients suffering from gout
Procedure: (§1) The subjects were screened and examined on D-21 to D-15. 0.5 mg of colchicine once a day (qd) were orally administered to those who passed the screening on an empty stomach (D-14 to D16). If the subject was receiving an uric acid-lowering therapy (including allopurinol, febuxostat, benzbromarone, probenecid and the like) at the time of screening, the drug should be withdrawn for at least 2 weeks before D1. The subjects were admitted to the phase I clinical trial ward on D-2, and medical history inquiry, physical examination, vital signs examination, 12-lead electrocardiogram (ECG) examination, blood pregnancy examination (for female of childbearing age) were conducted again [if D-2 was more than 20 days away from the screening period, then blood examination, urine routine examination, CK\CK-MB, blood biochemistry (including serum creatinine and uric acid) examination were also required].
During the hospital stay, the subjects were fasted for more than 10 hours after dinner everyday (with free access to water). […] On D2, the subjects on an empty stomach were subjected to blood sampling, followed by having a standard meal which should be eaten within 20 minutes. Except for before the drug administration and 1 hour after the drug administration, water was consumed as needed at other times. On D3 to 8, no less than 2 L of water was consumed daily. […]

[2] = PK interaction of the compound of Formula I-1, febuxostat and colchicine (PK parameters in plasma); conditions: for AUC: plasma, oral, AUCss of the compound of Formula I-1, geometric mean
Procedure: as §1
During the hospital stay, the subjects were fasted for more than 10 hours after dinner everyday (with free access to water). […] On D2, the subjects on an empty stomach were subjected to blood sampling, followed by having a standard meal which should be eaten within 20 minutes. Except for before the drug administration and 1 hour after the drug administration, water was consumed as needed at other times. On D3 to 8, no less than 2 L of water was consumed daily. On D9, the subjects can be discharged from the hospital after completing relevant examinations and operations, with a total hospital stay of 10 days. On D16 to 23, the subjects came back to the phase I clinical trial ward for follow-up. Throughout the study period, the subjects should avoid strenuous exercise and prolonged bed rest. The drug administration scheme is detailed in Table 1.
Colchicine tablets: D-14 to D16, 0.5 mg qd, orally administered on an empty stomach; Febuxostat tablets: D1 and D8, 80 mg qd, orally administered on an empty stomach; Tablets of the compound of Formula I-1: D3 to D8, 10 mg qd, orally administered on an empty stomach.
G. Main Observation Indicator • i. PK parameters of the compound of Formula I-1, febuxostat (Ruiyang®) and colchicine in plasma.

sUA = conditions: after 6 months; febuxostat alone group; cited from earlier work
[3] = combined administration with febuxostat 80 mg
[4] = combined administration with the compound of Formula I-1, no statistical difference (P>0.05)
[5] = impact of compound of Formula I-1 on colchicine
[6] = impact of febuxostat on colchicine
[7] = single administration (colchicine 0.5 mg qd)
[8] = impact of febuxostat on the compound of Formula I-1

Cc1nc(-c2ccc(OCC(C)C)c(C#N)c2)sc1C(=O)O [febuxostat]
incidence of kidney-related adverse events [1]: 5.5% | serum creatinine increased ≥ 1.5 times the baseline [1]: 2.8% | serum creatinine increased ≥2 times the baseline [1]: 0% | average maximum reduction of serum uric acid (sUA) concentration (serum uric acid (sUA); single administration of febuxostat 80 mg, compared with single administration of colchicine at steady state): 22.144% | AUC0-last of febuxostat, Ratio (combined administration vs single administration) ([2]; human, in vivo): 88.54% | Cmax of febuxostat, Ratio (combined administration vs single administration) ([2]; human, in vivo): 86.42% | proportion of patients who achieved sUA<5.0 mg/dl (sUA): 46.8%

COc1cc2c(c(OC)c1OC)-c1ccc(OC)c(=O)cc1[C@@H](NC(C)=O)CC2 [colchicine]
Css, max of colchicine, geometric mean ([2]; combined administration with compound of Formula I-1 10 mg qd): 2.2048 ng/mL | AUCss of colchicine, geometric mean [2, 3]: 18.3270 ng·h/mL | Css, max of colchicine, geometric mean [2, 3]: 2.2601 ng/mL | decrease of Css,max of colchicine ([2]; combined administration with febuxostat, no statistical difference (P>0.05)): 9.92% | decrease of AUCss of colchicine [2, 4]: 9.84% | decrease of Css,max of colchicine [2, 4]: 12.12% | AUCss of colchicine, Ratio (combined administration vs single administration) [2, 5]: 90.16% | Css, max of colchicine, Ratio (combined administration vs single administration) [2, 5]: 87.88% | AUCss of colchicine, Ratio (combined administration vs single administration) [2, 6]: 99.43% | Css, max of colchicine, Ratio (combined administration vs single administration) [2, 6]: 90.08% | AUCss of colchicine, geometric mean [2, 7]: 18.4329 ng·h/mL | Css, max of colchicine, geometric mean [2, 7]: 2.5089 ng/mL

O=C([O-])C1(Sc2ccnc3ccc(Br)cc23)CCC1.[Na+] [compound of Formula I-1]
average maximum reduction of serum sUA concentration (serum uric acid (sUA); compound of Formula I-1 10 mg qd administered sequentially, relative to baseline (D3-0 h)): 60.883% | effect of febuxostat on the steady-state exposure level of the compound of Formula I-1 ([2]; combined administration of febuxostat and the compound of Formula I-1): substantially no effect | Css, max of the compound of Formula I-1, geometric mean ([2]; combined administration with febuxostat 80 mg (colchicine background)): 1687.45 ng/mL | AUC ([2]; human, combined administration with febuxostat 80 mg (colchicine background)): 14700 ng·h/mL | AUC ([2]; human, single administration, 10 mg qd (colchicine 0.5 mg qd background)): 14400 ng·h/mL | AUCss of the compound of Formula I-1, Ratio (combined administration vs single administration) [2, 8]: 102.31% | Css, max of the compound of Formula I-1, Ratio (combined administration vs single administration) [2, 8]: 101.68% | Css, max of the compound of Formula I-1, geometric mean ([2]; single administration, 10 mg qd (colchicine 0.5 mg qd background)): 1659.60 ng/mL
